This note sets out measurements from the NIST ThermoML archive (doi:10.1021/je2001446).

Data set [1] is described as follows: Molar enthalpy of transition or fusion. As to conditions: Crystal.
For data set [2] the following is noted: Crystal.

Molecules are shown by their SMILES. Several values for one entry are separate records, joined by “and”; a condition that tells them apart may be missing. Identical values can stand only once. ± gives the expanded uncertainty stated by the source.

On to `CCCCCC[n+]1cccc(C)c1.[Cl-]` [1-hexyl-3-methylpyridinium chloride], for which, in data set [1], the “Molar enthalpy of transition or fusion” value worked out at 4.71 ± 0.741 kcal/mol. Besides, in data set [2], the Normal melting temperature was 82.0 ± 0.8 °C and 80 ± 2.5 °C.
For the compound `CCCCCCCCCCCC[n+]1cccc(C)c1.[Cl-]` [1-dodecyl-3-methylpyridinium chloride], the “Molar enthalpy of transition or fusion” value in data set [1] was 8.87 ± 0.789 kcal/mol. The Normal melting temperature in data set [2] is 87.7 ± 0.8 °C and 86.8 ± 2.5 °C.
On to `CCCC[n+]1cccc(C)c1.[Cl-]` [1-butyl-3-methylpyridinium chloride], for which the “Molar enthalpy of transition or fusion” value in data set [1] came to 6.57 ± 0.765 kcal/mol. In data set [2], the Normal melting temperature was 111.4 ± 0.8 °C and 109.8 ± 2.5 °C.
Regarding `CCCCCCCCCCCCCCCCCC[n+]1cccc(C)c1.[Cl-]` [3-methyl-1-octadecylpyridinium chloride], in data set [1], the “Molar enthalpy of transition or fusion” value amounted to 6.72 ± 0.765 kcal/mol. The Normal melting temperature in data set [2] is 112.2 ± 0.8 °C and 113 ± 2.5 °C.
Turning to `CCCCCCCCCCCCCCCC[n+]1cccc(C)c1.[Cl-]` [1-hexadecyl-3-methylpyridinium chloride], the “Molar enthalpy of transition or fusion” value in data set [1] turned out to be 9.63 ± 0.813 kcal/mol. Moreover, in data set [2], the Normal melting temperature is 110 ± 0.8 °C and 110.0 ± 2.5 °C.
In the case of `CCCCCCCC[n+]1cccc(C)c1.[Cl-]` [1-octyl-3-methylpyridinium chloride], the “Molar enthalpy of transition or fusion” value in data set [1] was 3.56 ± 0.741 kcal/mol. Also, in data set [2], the Normal melting temperature is 80.1 ± 0.8 °C and 79.2 ± 2.5 °C.
`CCCCCCCCCC[n+]1cccc(C)c1.[Cl-]` [1-decyl-3-methylpyridinium chloride]: the “Molar enthalpy of transition or fusion” value in data set [1] is 3.44 ± 0.741 kcal/mol. Further, the Normal melting temperature in data set [2] was 79.4 ± 0.8 °C and 75.6 ± 2.5 °C.
`CCCCCCCCCCCCCC[n+]1cccc(C)c1.[Cl-]` [1-tetradecyl-3-methylpyridinium chloride]: the “Molar enthalpy of transition or fusion” value in data set [1] stood at 10.2 ± 0.813 kcal/mol. Also, the Normal melting temperature in data set [2] is 93.7 ± 0.8 °C and 94.6 ± 2.5 °C.
